# From patent US8088761B2, “Enzyme inhibitors” (Cancer Research Technology Limited, priority 2005, dated 2012)
# Test system: HCT116 cells
# Assay: Cell viability assay (MTT) in HCT116 cell line
# Format: cell-based
# Details: Homo sapiens, HCT-116, 72 hrs, IC50 range, read-out: HCT116 cell growth inhibition
# Protocol: Cell Viability Assay: Determination of IC50 of Aurora Inhibitors in HCT116 Cell Line Using MTT Assay. The effects of compounds of the Examples on cellular proliferation were determined using the MTT assay according to manufacturer's instructions (Sigma). Briefly, the human colon tumour cells HCT116, were seeded in triplicate into 96-well plates at 2500 cells/well 24 hours before treatment with a range of concentrations of Aurora inhibitors (0-50 μM). After 72 hrs, 15 μl/well of 0.5% 3-(4,5-dimethylthiazol-2-yl)-2,5-diphenyltetrazolium bromide (MTT) was added to the cells for 4 hrs at 37° C., the dye-stained viable cells were extracted by adding 150 μl/well of dimethyl sulphoxide (DMSO). […] The IC50 was calculated using the Prism software.
row,IC50 [nM],Structure (SMILES)
1,2000 to 50000,"CN(C)c1ccc(-c2nc3c(N4CCN(CC(=O)N(C)c5ccccc5)CC4)c(Cl)cnc3[nH]2)cc1 [Example 3, 2-{4-[6-Chloro-2-(4-dimethylamino-phenyl)-3H-imidazo[4,5-b]pyridin-7-yl]-piperazin-1-yl}-N-methyl-N-phenyl-acetamide]"
2,500 to 2000,"O=C(CN1CCN(c2c(Cl)cnc3[nH]c(-c4ccccc4)nc23)CC1)Nc1nccs1 [Example 4, 2-[4-(6-Chloro-2-phenyl-3H-imidazo[4,5-b]pyridin-7-yl)-piperazin-1-yl]-N-thiazol-2-yl-acetamide]"
3,< 500,"Brc1cnc2[nH]c(-c3ccc(CN4CCOCC4)cc3)nc2c1N1CCN(Cc2ccncc2)CC1 [Example 68, 6-Bromo-2-(4-morpholin-4-ylmethyl-phenyl)-7-(4-pyridin-4-ylmethyl-piperazin-1-yl)-3H-imidazo[4,5-b]pyridine]"

# Molecular target: T1, Aurora-A (Homo sapiens, UniProt O14965)
# T1 sequence (O14965 1-403): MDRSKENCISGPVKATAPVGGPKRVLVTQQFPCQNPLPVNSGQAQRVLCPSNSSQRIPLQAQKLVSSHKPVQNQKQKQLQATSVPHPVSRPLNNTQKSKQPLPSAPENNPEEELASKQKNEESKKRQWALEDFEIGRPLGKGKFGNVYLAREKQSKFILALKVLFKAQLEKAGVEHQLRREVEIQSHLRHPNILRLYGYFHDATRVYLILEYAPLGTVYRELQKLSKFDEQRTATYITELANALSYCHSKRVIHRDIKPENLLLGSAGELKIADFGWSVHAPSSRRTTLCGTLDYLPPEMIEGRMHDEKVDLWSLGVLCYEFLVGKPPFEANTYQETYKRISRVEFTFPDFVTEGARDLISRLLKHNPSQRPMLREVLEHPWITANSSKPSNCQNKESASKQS
# Assay: Flashplate Aurora A enzyme inhibition assay
# Format: biochemical
# Details: not given
# Protocol: Flashplate® Assay for Identification and Evaluation of Aurora-A Inhibitors
# On this assay 384-well Basic Flashplate® (SMP400E, PerkinElmer) as solid assay platform was used. The plates were coated overnight at 4° C. with […] at 100 μg/ml in PBS buffer and used after being washed twice with PBS. 5 μl of compound in 2% DMSO was added to each well followed by 15 μl master mix of kinase buffer (50 mM Tris pH 7.5, 10 mM NaCl, 2.5 mM MgCl2, 1 mM […], 20 μM ATP, and 0.025 μCi/μl ^33P-ATP). Finally, 250 ng per well of Aurora-A enzyme was added. The plate was shaken for approximately 2 min on a flat-bed plate shaker (Wellmix, Denley, UK) and incubated for 2 hours at room temperature. The reaction was stopped by washing the plate twice on a 16-pin wash (ELX50 BioTek Instruments Ltd., Northstar, Bedford, UK) with 10 mM sodium pyrophosphate. The plate was then read on a TopCount-NX™ (PerkinElmer Life Sciences UK Ltd., Hounslow, UK).
row,Structure (SMILES),IC50 [nM]
1,"CN(C)c1ccc(-c2nc3c(N4CCN(C(=O)Nc5ccccc5)CC4)c(Br)cnc3[nH]2)cc1 [Example 39, 4-(6-Bromo-2-(4-(dimethylamino)phenyl)-3H-imidazo[4,5-b]pyridin-7-yl)-N-phenylpiperazine-1-carboxamide]",< 500

# Same assay, conditions: Flashplate assay; IC50 range; read-out: Aurora-A inhibition
row,IC50 [nM],Structure (SMILES)
1,< 500,"O=C(CN1CCN(c2c(Cl)cnc3[nH]c(-c4ccccc4)nc23)CC1)Nc1nccs1 [Example 4, 2-[4-(6-Chloro-2-phenyl-3H-imidazo[4,5-b]pyridin-7-yl)-piperazin-1-yl]-N-thiazol-2-yl-acetamide]"
2,500 to 2000,"CC(C)(C)OC(=O)NCc1ccc(-c2nc3c(N4CCN(CC(=O)Nc5nccs5)CC4)c(Br)cnc3[nH]2)cc1 [Example 6, (4-{6-Bromo-7-[4-(thiazol-2-ylcarbamoylmethyl)-piperazin-1-yl]-3H-imidazo[4,5-b]pyridin-2-yl}-benzyl)-carbamic acid tert-butyl ester]"
3,< 500,"CN(C)c1ccc(-c2nc3c(N4CCN(CCNC(=O)Nc5ccccc5)CC4)c(Br)cnc3[nH]2)cc1 [Example 41, 1-(2-(4-(6-Bromo-2-(4-(dimethylamino)phenyl)-3H-imidazo[4,5-b]pyridin-7-yl)piperazin-1-yl)ethyl)-3-phenylurea]"
4,< 500,"CCNC(=O)N1CCN(c2c(Br)cnc3[nH]c(-c4ccc(N(C)C)cc4)nc23)CC1 [Example 43, 4-(6-Bromo-2-(4-(dimethylamino)phenyl)-3H-imidazo[4,5-b]pyridin-7-yl)-N-ethylpiperazine-1-carboxamide]"
5,500 to 2000,"CCOC(=O)C1CC1c1nc2c(N3CCN(CC(=O)Nc4nccs4)CC3)c(Br)cnc2[nH]1 (centres unmarked) [Example 45, Ethyl 2-(6-bromo-7-(4-(2-oxo-2-(thiazol-2-ylamino)ethyl)piperazin-1-yl)-3H-imidazo[4,5-b]pyridin-2-yl)cyclopropanecarboxylate]"
6,500 to 2000,"CCN1CCN(c2c(Br)cnc3[nH]c(-c4ccc(N(C)C)cc4)nc23)CC1 [Example 47, 4-(6-Bromo-7-(4-ethylpiperazin-1-yl)-3H-imidazo[4,5-b]pyridin-2-yl)-N,N-dimethylaniline]"
7,< 500,"CC(C)(C)OC(=O)NCc1cccc(-c2nc3c(N4CCN(Cc5cccnc5)CC4)c(Br)cnc3[nH]2)c1 [Example 91, tert-Butyl 3-(6-bromo-7-(4-(pyridin-3-ylmethyl)piperazin-1-yl)-3H-imidazo[4,5-b]pyridin-2-yl)benzylcarbamate]"
8,< 500,"CC(C)(C)OC(=O)N1CCN(c2ccc(-c3nc4c(N5CCN(Cc6cccnc6)CC5)c(Br)cnc4[nH]3)cc2)CC1 [Example 103, tert-Butyl 4-(4-(6-bromo-7-(4-(pyridin-3-ylmethyl)piperazin-1-yl)-3H-imidazo[4,5-b]pyridin-2-yl)phenyl)piperazine-1-carboxylate]"
9,< 500,"CC(C)c1nc(CN2CCN(c3c(Br)cnc4[nH]c(-c5ccc(CN6CCOCC6)cc5)nc34)CC2)co1 [Example 146, 4-(4-(6-Bromo-7-(4-((2-isopropyloxazol-4-yl)methyl)piperazin-1-yl)-3H-imidazo[4,5-b]pyridin-2-yl)benzyl)morpholine]"
10,< 500,"COc1ccc(-c2nc3c(N4CCN(Cc5nccs5)CC4)c(Br)cnc3[nH]2)cc1 [Example 151, 2-((4-(6-Bromo-2-(4-methoxyphenyl)-3H-imidazo[4,5-b]pyridin-7-yl)piperazin-1-yl)methyl)thiazole]"
11,< 500,"COc1ccc(-c2nc3c(N4CCN(Cc5csc(C(C)C)n5)CC4)c(Br)cnc3[nH]2)cc1 [Example 153, 4-((4-(6-Bromo-2-(4-methoxyphenyl)-3H-imidazo[4,5-b]pyridin-7-yl)piperazin-1-yl)methyl)-2-isopropylthiazole]"
12,< 500,"Cc1nc(CN2CCN(c3c(Br)cnc4[nH]c(-c5ccc(CN6CCN(C(=O)OC(C)(C)C)CC6)cc5)nc34)CC2)cs1 [Example 157, tert-Butyl 4-(4-(6-bromo-7-(4-((2-methylthiazol-4-yl)methyl)piperazin-1-yl)-3H-imidazo[4,5-b]pyridin-2-yl)benzyl)piperazine-1-carboxylate]"
13,< 500,"Cc1nc(CN2CCN(c3c(Br)cnc4[nH]c(-c5ccc(N6CCN(C(=O)OC(C)(C)C)CC6)cc5)nc34)CC2)cs1 [Example 158, tert-Butyl 4-(4-(6-bromo-7-(4-((2-methylthiazol-4-yl)methyl)piperazin-1-yl)-3H-imidazo[4,5-b]pyridin-2-yl)phenyl)piperazine-1-carboxylate]"

# More lines, now with the values behind:
row,Structure (SMILES),IC50 [nM]
1,"CN(C)c1ccc(-c2nc3c(N4CCN(CC(=O)N(C)c5ccccc5)CC4)c(Cl)cnc3[nH]2)cc1 [Example 3, 2-{4-[6-Chloro-2-(4-dimethylamino-phenyl)-3H-imidazo[4,5-b]pyridin-7-yl]-piperazin-1-yl}-N-methyl-N-phenyl-acetamide]",< 500
2,"CN(C)c1ccc(-c2nc3c(N4CCN(CCOc5ccccc5)CC4)c(Cl)cnc3[nH]2)cc1 [Example 9, (4-{6-Chloro-7-[4-(2-phenoxy-ethyl)-piperazin-1-yl]-3H-imidazo[4,5-b]pyridin-2-yl}-phenyl)-dimethyl-amine]",< 500
3,"CN(C)c1ccc(-c2nc3c(N4CCNCC4)c(Br)cnc3[nH]2)cc1 [Example 15, [4-(6-Bromo-7-piperazin-1-yl-3H-imidazo[4,5-b]pyridin-2-yl)-phenyl]-dimethyl-amine]",< 500
4,"CN(C)c1ccc(-c2nc3c(N4CCN(Cc5c(F)cccc5Cl)CC4)c(Cl)cnc3[nH]2)cc1 [Example 16, 4-(6-Chloro-7-(4-(2-chloro-6-fluorobenzyl)piperazin-1-yl)-3H-imidazo[4,5-b]pyridin-2-yl)-N,N-dimethylaniline]",500 to 2000
5,"COc1ccc(C(=O)N2CCN(c3c(Cl)cnc4[nH]c(-c5ccc(N(C)C)cc5)nc34)CC2)cc1 [Example 18, (4-(6-Chloro-2-(4-(dimethylamino)phenyl)-3H-imidazo[4,5-b]pyridin-7-yl)piperazin-1-yl)(4-methoxyphenyl)methanone]",2000 to 10000
6,"CN(C)c1ccc(-c2nc3c(N4CCN(c5ccccc5)CC4)c(Br)cnc3[nH]2)cc1 [Example 48, 4-(6-Bromo-7-(4-phenylpiperazin-1-yl)-3H-imidazo[4,5-b]pyridin-2-yl)-N,N-dimethylaniline]",< 500
7,"COc1ncccc1-c1nc2c(N3CCN(Cc4cccnc4)CC3)c(Br)cnc2[nH]1 [Example 55, 6-Bromo-2-(2-methoxypyridin-3-yl)-7-(4-(pyridin-3-ylmethyl)piperazin-1-yl)-3H-imidazo[4,5-b]pyridine]",500 to 2000
8,"CC(c1ccccc1)N1CCN(c2c(Br)cnc3[nH]c(-c4ccc(N5CCC(O)CC5)cc4)nc23)CC1 (centres unmarked) [Example 88, 1-(4-{6-Bromo-7-[4-(1-phenyl-ethyl)-piperazin-1-yl]-3H-imidazo[4,5-b]pyridin-2-yl}-phenyl)-piperidin-4-ol]",< 500
9,"FC(F)(F)c1ccc(CN2CCN(c3c(Br)cnc4[nH]c(-c5ccc(N6CCOCC6)cc5)nc34)CC2)cn1 [Example 126, 4-(4-(6-Bromo-7-(4-((6-(trifluoromethyl)pyridin-3-yl)methyl)piperazin-1-yl)-3H-imidazo[4,5-b]pyridin-2-yl)phenyl)morpholine]",< 500
